# Biological target: Adenosine receptor A2a (Rattus norvegicus, UniProt P30543)
# Sequence (P30543 whole entry): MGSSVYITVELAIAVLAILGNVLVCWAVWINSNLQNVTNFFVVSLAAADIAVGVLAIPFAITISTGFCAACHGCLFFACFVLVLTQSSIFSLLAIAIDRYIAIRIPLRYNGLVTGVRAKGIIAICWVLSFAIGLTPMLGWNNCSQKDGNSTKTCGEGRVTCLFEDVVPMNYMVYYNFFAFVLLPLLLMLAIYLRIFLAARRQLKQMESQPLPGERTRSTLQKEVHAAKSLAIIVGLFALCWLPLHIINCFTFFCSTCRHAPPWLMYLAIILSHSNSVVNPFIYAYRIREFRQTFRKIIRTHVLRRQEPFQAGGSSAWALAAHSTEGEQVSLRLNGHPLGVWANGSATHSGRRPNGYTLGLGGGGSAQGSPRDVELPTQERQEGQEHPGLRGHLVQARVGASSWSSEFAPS
smiles,measurement,value
OC[C@H]1O[C@@H](n2cnc3c(NC4CCCC4)ncnc32)[C@H](O)[C@@H]1O,Ki,2 µM
